The values that follow come from patent publication US9328122B2, “7-substituted Hanfangichin B derivative, and preparation method and use thereof” (HANGZHOU BENSHENG PHARMACEUTICAL CO., LTD., priority 2012, dated 2016).

≈ marks a conversion by molar mass, not a printed value.

One assay relates to K562/ADR (K562adr, drug-resistant chronic myeloid leukemia) cells. The experiment in a line: MTT cell growth inhibition, leukemia cells. In kind it is cell-based. The note with it: Homo sapiens; K562/ADR, 72 h, MTT; read-out: IC50. An excerpt:
(§1) Leukemia cell lines: leukemia cell lines: K562adr (drug-resistant, chronic myeloid leukemia, CML), NB4 (acute promyelocytic leukemia, AML), Kasumi-1 (acute myeloid leukemia M2 type, AML-M2), Jurkat (acute lymphoblastic leukemia, ALL), all of which were donated by Cancer Research Institute of Zhejiang University, China; and H9 (acute lymphoblastic leukemia, ALL), which was purchased from China Center for Type Culture Collection.
(§2) Reagents: The standard sample of fangchinoline (FAN) was purchased from Ci Yuan Biotechnology Co., Ltd., Shaanxi, China; and the 7-substituted fangchinoline derivatives according to the present invention.
(§3) 6000 well-growing leukemia cells were obtained and inoculated into wells of a 96-well cell culture plate. The culture medium was a RPMI-1640 cell culture medium containing 10% fetal bovine serum. After adding the 7-substituted fangchinoline derivatives of different concentrations the next day and mixing uniformly, the plate was placed in a carbon dioxide cell incubator (5% CO2) at 37° C. and incubating for 72 hours. Then the viable cell concentration was determined by the MTT method.
A word on the IC50: it is the concentration at which inhibition is half-maximal. For the molecule `COc1ccc2cc1Oc1ccc(cc1)C[C@H]1c3cc(c(OC)cc3CCN1C)Oc1c(OCc3ccc(C(F)(F)F)cc3)c(OC)cc3c1[C@H](C2)N(C)CC3` [BS-FC-216], the IC50 came out at 0.6 µg/mL (≈ 0.782 µM).

The same assay, now with this note: Homo sapiens; K562/ADR, 72 h, MTT; read-out: IC90.
As a reminder, the IC90 is the concentration needed for an effect of 90%. On to `COc1ccc2cc1Oc1ccc(cc1)C[C@H]1c3cc(c(OC)cc3CCN1C)Oc1c(OCc3ccc(C(F)(F)F)cc3)c(OC)cc3c1[C@H](C2)N(C)CC3` [BS-FC-216], for which the IC90 was found to be 2.15 µg/mL (≈ 2.8 µM).

A further assay concerns NB4 (acute promyelocytic leukemia) cells. The experiment in a line: MTT cell growth inhibition, leukemia cells. In kind it is cell-based. The note with it: Homo sapiens; NB4, 72 h, MTT; read-out: IC50.
Excerpt: as §1, §2, §3
With `COc1ccc2cc1Oc1ccc(cc1)C[C@H]1c3cc(c(OC)cc3CCN1C)Oc1c(OCc3ccc(C(F)(F)F)cc3)c(OC)cc3c1[C@H](C2)N(C)CC3` [BS-FC-216], the IC50 stood at 0.99 µg/mL (≈ 1.29 µM).

Staying with this assay, now noted: Homo sapiens; NB4, 72 h, MTT; read-out: IC90.
For the molecule `COc1ccc2cc1Oc1ccc(cc1)C[C@H]1c3cc(c(OC)cc3CCN1C)Oc1c(OCc3ccc(C(F)(F)F)cc3)c(OC)cc3c1[C@H](C2)N(C)CC3` [BS-FC-216], the IC90 turned out to be 2.93 µg/mL (≈ 3.82 µM).

In another assay the test system is H9 (acute lymphoblastic leukemia) cells. Description: MTT cell growth inhibition, leukemia cells. In kind it is cell-based, human. The note with it: Homo sapiens; H9, 72 h, MTT; read-out: IC50.
Excerpt: as §1, §2, §3
Take `COc1ccc2cc1Oc1ccc(cc1)C[C@H]1c3cc(c(OC)cc3CCN1C)Oc1c(OCc3ccc(C(F)(F)F)cc3)c(OC)cc3c1[C@H](C2)N(C)CC3` [BS-FC-216]: the IC50 was determined as 1.8 µg/mL (≈ 2.35 µM).

The same assay, now with this note: Homo sapiens; H9, 72 h, MTT; read-out: IC90.
Turning to `COc1ccc2cc1Oc1ccc(cc1)C[C@H]1c3cc(c(OC)cc3CCN1C)Oc1c(OCc3ccc(C(F)(F)F)cc3)c(OC)cc3c1[C@H](C2)N(C)CC3` [BS-FC-216], the IC90 was 3.3 µg/mL (≈ 4.3 µM).

Another assay relates to Jurkat (acute lymphoblastic leukemia) cells. Description: MTT cell growth inhibition, leukemia cells. In kind it is cell-based, human. The note with it: Homo sapiens; Jurkat, 72 h, MTT; read-out: IC50.
Excerpt: as §1, §2, §3
On to `COc1ccc2cc1Oc1ccc(cc1)C[C@H]1c3cc(c(OC)cc3CCN1C)Oc1c(OCc3ccc(C(F)(F)F)cc3)c(OC)cc3c1[C@H](C2)N(C)CC3` [BS-FC-216], for which the IC50 came out at 1.42 µg/mL (≈ 1.85 µM).

The assay is the same for the next values; noted with them: Homo sapiens; Jurkat, 72 h, MTT; read-out: IC90.
As to `COc1ccc2cc1Oc1ccc(cc1)C[C@H]1c3cc(c(OC)cc3CCN1C)Oc1c(OCc3ccc(C(F)(F)F)cc3)c(OC)cc3c1[C@H](C2)N(C)CC3` [BS-FC-216], the IC90 worked out at 2.91 µg/mL (≈ 3.79 µM).

A further assay deals with Kasumi-1 (acute myeloid leukemia M2 type) cells. The experiment in a line: MTT cell growth inhibition, leukemia cells. The format is cell-based, human. The note with it: Homo sapiens; Kasumi-1, 72 h, MTT; read-out: IC50.
Excerpt: as §1, §2, §3
Turning to `COc1ccc2cc1Oc1ccc(cc1)C[C@H]1c3cc(c(OC)cc3CCN1C)Oc1c(OCc3ccc(C(F)(F)F)cc3)c(OC)cc3c1[C@H](C2)N(C)CC3` [BS-FC-216], the IC50 was 3.22 µg/mL (≈ 4.2 µM).

Still in this assay, the particulars now being: Homo sapiens; Kasumi-1, 72 h, MTT; read-out: IC90.
Regarding `COc1ccc2cc1Oc1ccc(cc1)C[C@H]1c3cc(c(OC)cc3CCN1C)Oc1c(OCc3ccc(C(F)(F)F)cc3)c(OC)cc3c1[C@H](C2)N(C)CC3` [BS-FC-216], the IC90 worked out at 7.22 µg/mL (≈ 9.42 µM).

In another assay the test system is RPMI 8226 (multiple myeloma) cells. Description: MTT cell growth inhibition, multiple myeloma cells. In kind it is cell-based, human. The note with it: Homo sapiens; RPMI 8226, 72 h, MTT; read-out: IC50. As to the method: Myeloma cell lines: RPMI8226 (multiple myeloma), purchased from Fuxiang Bio-tech Co. Ltd., Shanghai, China.
6000 well-growing cells were obtained and inoculated into wells of a 96-well cell culture plate. The culture medium was a RPMI-1640 cell culture medium containing 10% fetal bovine serum. After adding the 7-substituted fangchinoline derivatives of different concentrations the next day and mixing uniformly, the plate was placed in a carbon dioxide cell incubator (5% CO2) at 37° C. and incubated for 72 hours. Then the viable cell concentration was determined by the MTT method.
In the case of `COc1ccc2cc1Oc1ccc(cc1)C[C@H]1c3cc(c(OC)cc3CCN1C)Oc1c(OCc3ccc(C(F)(F)F)cc3)c(OC)cc3c1[C@H](C2)N(C)CC3` [BS-FC-216], the IC50 turned out to be 0.13 µg/mL (≈ 0.17 µM).

The assay is the same for the next values; noted with them: Homo sapiens; RPMI 8226, 72 h, MTT; read-out: IC90.
With `COc1ccc2cc1Oc1ccc(cc1)C[C@H]1c3cc(c(OC)cc3CCN1C)Oc1c(OCc3ccc(C(F)(F)F)cc3)c(OC)cc3c1[C@H](C2)N(C)CC3` [BS-FC-216], the IC90 was determined as 0.77 µg/mL (≈ 1 µM).

A further assay relates to CNE (nasopharyngeal carcinoma) cells. Description: MTT cell growth inhibition, solid tumor cells. In kind it is cell-based, human. The note with it: Homo sapiens; CNE, 72 h, MTT; read-out: IC50. From the text: (§4) Hep-2 (laryngeal carcinoma), A549 (human lung cancer), CaES-17 (esophageal cancer cell), PC-3 (prostate cancer), CNE (nasopharyngeal carcinoma cell) and SK-OV-3 (ovarian cancer cell), all of which were purchased from China Center For Type Culture Collection; RKO (human colon adenocarcinoma cell), MGC-803 (human gastric cancer cell), MG-63 (osteosarcoma), and U87-MG (malignant glioma cell), all of which were purchased from Fuxiang Bio-tech Co. Ltd., Shanghai, China; PANC-1 (pancreatic cancer), Becap37 (human breast cancer cell), Hela (human cervical cancer cell) and Hep G2 (human liver cancer cell), all of which were donated by Cancer Research Institute of Zhejiang University, China.
(§5) 6000 well-growing human solid tumor cells were obtained and inoculated into wells of a 96-well cell culture plate. The culture medium was DMEM High Glucose cell culture medium containing 10% fetal bovine serum. The plate was placed in a carbon dioxide cell incubator (5% CO2) at 37° C. and incubated for 24 hours. After added with 7-substituted fangchinoline derivatives of different concentration and mixing uniformly, the plate was placed in a carbon dioxide cell incubator (5% CO2) at 37° C. and incubated for 72 hours. Then the viable cell concentration was determined by the MTT method.
With `COc1ccc2cc1Oc1ccc(cc1)C[C@H]1c3cc(c(OC)cc3CCN1C)Oc1c(OCc3ccc(C(F)(F)F)cc3)c(OC)cc3c1[C@H](C2)N(C)CC3` [BS-FC-216], the IC50 was 3.38 µg/mL (≈ 4.41 µM).

The assay is the same for the next values; noted with them: Homo sapiens; CNE, 72 h, MTT; read-out: IC90.
Consider `COc1ccc2cc1Oc1ccc(cc1)C[C@H]1c3cc(c(OC)cc3CCN1C)Oc1c(OCc3ccc(C(F)(F)F)cc3)c(OC)cc3c1[C@H](C2)N(C)CC3` [BS-FC-216], for which the IC90 worked out at 7.34 µg/mL (≈ 9.57 µM).

The subject of another assay is CaEs-17 (esophageal cancer) cells. Description: MTT cell growth inhibition, solid tumor cells. In kind it is cell-based, human. The note with it: Homo sapiens, CaEs17; CaEs-17, 72 h, MTT; read-out: IC50.
Excerpt: as §4, §5
`COc1ccc2cc1Oc1ccc(cc1)C[C@H]1c3cc(c(OC)cc3CCN1C)Oc1c(OCc3ccc(C(F)(F)F)cc3)c(OC)cc3c1[C@H](C2)N(C)CC3` [BS-FC-216]: the IC50 was 3.1 µg/mL (≈ 4.04 µM).

Staying with this assay, now noted: Homo sapiens, CaEs17; CaEs-17, 72 h, MTT; read-out: IC90.
For `COc1ccc2cc1Oc1ccc(cc1)C[C@H]1c3cc(c(OC)cc3CCN1C)Oc1c(OCc3ccc(C(F)(F)F)cc3)c(OC)cc3c1[C@H](C2)N(C)CC3` [BS-FC-216], the concentration for an effect of 90% (IC90) turned out to be 7.59 µg/mL (≈ 9.9 µM).

The subject of the next assay is PANC-1 (pancreatic cancer) cells. The experiment in a line: MTT cell growth inhibition, solid tumor cells. The format is cell-based, human. The note with it: Homo sapiens; PANC-1, 72 h, MTT; read-out: IC50.
Excerpt: as §4, §5
For the molecule `COc1ccc2cc1Oc1ccc(cc1)C[C@H]1c3cc(c(OC)cc3CCN1C)Oc1c(OCc3ccc(C(F)(F)F)cc3)c(OC)cc3c1[C@H](C2)N(C)CC3` [BS-FC-216], the IC50 was found to be 3.62 µg/mL (≈ 4.72 µM).
